Source: patent US20200017449A1, “HYDANTOINS THAT MODULATE BACE-MEDIATED APP PROCESSING” (Buck Institute for Research on Aging, priority 2013, published 2020)
Read-outs that look alike come from different tables or passages of the source.

Assays:
TRX-eAPP575-624 = target: T1, TRX-eAPP575-624 (Homo sapiens, UniProt P05067); assay: SPR (Biacore) binding to ectodomain of APP
T1 construct: residues 575-624 of the APP ectodomain; made in house
Description: The binding affinity of the compounds for the ectodomain of APP was determined using SPR. […] The eAPP was crosslinked linked to the CM5 Biacore chips (GE Healthcare).
FC1 served as a reference cell following a mock immobilization with buffer alone. For all cells, the flow rate was 10 μl per min. The chip was blocked with 1M ethanolamine (pH 8.5). […] Binding traces were recorded for each dilution with a binding phase of 60 seconds and a dissociation phase of 240 seconds. Each cycle was performed at 20° C. with a constant flow rate of 20 μl/min. An additional 240 seconds of buffer flow at 60 μl per min across the cells was applied as a regeneration phase to facilitate complete dissociation of the compound from the protein. The sensograms were obtained by subtraction of the reference and buffer signals using the Biacore T100 Evaluation software. The binding curves were modeled with the PRISM (Graphpad Inc).

BACE1 = target: T2, BACE1 (Homo sapiens, UniProt P56817); assay: BACE1 P5-P5′ fluorescence substrate assay (APP-BACE1 IC50); format: biochemical; settings: Table 1; read-out: BACE IC50
T2 construct: purchased R&D 931-AS-050
Description: In one illustrative embodiment, an MBP-C125 APP695 wt fusion protein can be used as one of the substrates and the second substrate can be the commercially available P5-P5′ fluorescence substrate.
Briefly, 0.01 units of BACE1 were incubated for 1 h at room temperature with a BACE inhibitor, then the substrate was added to each well and the fluorescence was read immediately and every 30 min for 2 h. Activity was determine by dividing the fluorescence at a specific [BACE inhibitor] by the fluorescence at [BACE inhibitor]=0 μM, the % activity was plotted vs log[BACE inhibitor] to determine the APP-BACE1 using GraphPad Prism 5 (FIG. 6A)

Aβ42 = assay: Aβ lowering in brain uptake animals; format: in vivo; settings: NTg mice
Description: Compound 2 and other hydantoins were produced (see, e.g., compounds 1-5 pharmacokinetic evaluation of these hydantoins was determined in brain uptake assays using NTg mice (see, e.g., Table 1). It was also determined that Compound 1 lowered Aβ42 in the same animals at 5 mpk, while compound 3 lowered Aβ at 1 mpk.

[1] = tested on: Aβ1-42 in SH-SY5Y neuroblastoma cells; assay: Aβ1-42 in SH-SY5Y cells (ELISA); format: cell-based, human; settings: FIG. 5
Description: SH-SY5Y neuroblastoma cells were seeded at 50,000 cells/well in a 96 wells plate for 24 h. Then their medium was changed for fresh medium supplemented with desired concentration of the hydantoin compound (e.g. compound 3). After 24 h, 20 μl of the medium was added to 2 μl of the complete protease inhibitor with 1 μM EDTA and kept at 4° C. until analysis using the ELISA assay below.
ELISA kits from Invitrogen were also used to quantify Aβ1-42 (KHB3544) in duplicate. For the Aβ1-42 ultrasensitive ELISA, samples were diluted 1:2 (50 μl CSF plus 50 μl kit-provided standard diluent buffer). Assays were performed according to manufacturer's instructions. In short, standards and samples were added to a plate pre-coated with a monoclonal capture antibody specific for the amino terminus of Hu Aβ. The samples were co-incubated with a rabbit detection antibody (Ab) specific for the carboxy terminus of the Aβ species being assayed for 3 hr at room temperature overnight at 4°(Aβ1-42) with gentle rocking. After washing, bound rabbit Ab was detected using a horseradish peroxidase-labeled anti-rabbit secondary Ab. After washing again, bound HRP-anti rabbit Ab was detected colorimetrically (Spectramax 190, Molecular Devices) by the addition of a substrate solution. […]

[2] = Table 1, SPR, read-out: APP binding Kd

T1 sequence (P05067 650-699): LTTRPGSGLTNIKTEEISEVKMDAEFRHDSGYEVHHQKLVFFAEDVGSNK
T2 sequence (P56817 46-501): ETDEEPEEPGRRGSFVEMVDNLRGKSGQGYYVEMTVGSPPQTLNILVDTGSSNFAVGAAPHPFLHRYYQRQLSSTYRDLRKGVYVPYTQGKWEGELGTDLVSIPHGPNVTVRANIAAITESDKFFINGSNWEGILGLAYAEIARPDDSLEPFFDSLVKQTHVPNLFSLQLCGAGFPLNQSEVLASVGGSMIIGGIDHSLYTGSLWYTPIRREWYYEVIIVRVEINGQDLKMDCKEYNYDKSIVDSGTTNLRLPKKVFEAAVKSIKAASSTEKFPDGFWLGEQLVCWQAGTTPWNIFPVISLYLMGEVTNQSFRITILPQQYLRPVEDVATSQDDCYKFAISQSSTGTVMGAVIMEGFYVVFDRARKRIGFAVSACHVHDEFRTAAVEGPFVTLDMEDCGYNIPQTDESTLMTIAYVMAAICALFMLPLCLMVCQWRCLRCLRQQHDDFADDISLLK

Q: Which results are given for `Cc1cc(C2(c3cc(F)cc(F)c3)N=C(N)N(C)C2=O)ccc1OC(F)F` (stereo not drawn) [FAH-3, 2-amino-4-(4-(difluoromethoxy)-3-methylphenyl)-4-(3,5-difluorophenyl)-1-methyl-1H-imidazol-5(4H)-one]?
A: binding to eAPP (qualitative) (TRX-eAPP575-624; SPR / BiaCore, FIG. 4): binding to eAPP575-624; IC50 (BACE1): 520 nM; lowering of Aβ in vivo (Aβ42; 1 mpk): lowered Aβ; inhibition of Aβ production [1]: inhibition of Aβ production

Q: What does the source list for `Cc1cc(C2(c3cccc(F)c3)N=C(N)N(C)C2=O)ccc1OC(F)F` (stereo not drawn) [FAH-17, 2-amino-4-(4-(difluoromethoxy)-3-methylphenyl)-4-(3-fluorophenyl)-1-methyl-1H-imidazol-5(4H)-one]?
A: Kd (TRX-eAPP575-624; [2]): < 1000 nM; Kd (TRX-eAPP575-624; Table 5, Secondary Screen, read-out: APP Kd): < 1000 nM

Q: For `CN1C(=O)C(c2cc(F)cc(F)c2)(c2cccc(OC(F)F)c2)N=C1N` (stereo not drawn) [FAH-4, 2-amino-4-(3-(difluoromethoxy)phenyl)-4-(3,5-difluorophenyl)-1-methyl-1H-imidazol-5(4H)-one], which IC50 (BACE1) is on record?
A: 2100 nM

Q: How did the IC50 (BACE1) turn out when `Cc1cc(C)cc(C2(c3cc(F)cc(F)c3)N=C(N)N(C)C2=O)c1` (stereo not drawn) [FAH-5, 2-amino-4-(3,5-difluorophenyl)-4-(3,5-dimethylphenyl)-1-methyl-1H-imidazol-5(4H)-one] was run?
A: 5000 nM

Q: With `CN1C(=O)C(c2ccc(OC(F)F)cc2)(c2cc(F)cc(F)c2)N=C1N` (stereo not drawn) [FAH-2, 2-amino-4-(4-(difluoromethoxy)phenyl)-4-(3,5-difluorophenyl)-1-methyl-1H-imidazol-5(4H)-one] as the molecule, how does the Kd (TRX-eAPP575-624; [2]) read?
A: 8000 nM

Q: And the IC50 (BACE1)?
A: 2000 nM

Q: Which results are given for `CN1C(=O)C(c2ccccc2)(c2cc(F)cc(F)c2)N=C1N` (stereo not drawn) [FAH-1]?
A: IC50 (BACE1): 3000 nM; lowering of Aβ42 in vivo (Aβ42; 5 mpk): lowered Aβ42
